Entries after “also recorded” stand apart in the source; their conditions may differ. Structures can show the parent of a compound that is named as a salt.

The assay has as its system glioblastoma cell line GL261. Put plainly: GL261 glioblastoma tumor grafted on the chorio-allantoic membrane (CAM) of embryonated chicken eggs, tumor weight at E19. The assay is classed as in vivo, chicken embryo (Fertilized White Leghorn eggs). As to conditions: for Tumor weight (mg) (N = 18) / Tumor weight (mg) (N = 7 to 12): after 10 days of treatment; for Effect on GL261 tumor size/weight on the upper CAM, in words: test compound (100 nM) together with temozolomide (500 microM), compared to temozolomide alone or compound alone; for Effect on GL261 tumor size, in words: test compound alone (100 nM). On the procedure: Fertilized White Leghorn eggs were incubated at 38° C. with 60% relative humidity for 9 days. At this time (E9), the chorio-allantoic membrane (CAM) was dropped by drilling a small hole through the eggshell into the air sac and a 1 cm^2 window was cut in the eggshell above the CAM.
Cultured glioblastoma cell line GL261 were detached by trypsinization, washed with complete medium, labeled and suspended in serum free DMEM. An inoculum of GL261 cells was added onto the CAM of each egg. Eggs were then randomized in 6 groups.
They were then treated during 10 days, every two days (E10, E12, E14, E16, E18), by dropping 100 μl of test compound (100 nM), Temozolomide (500 microM), test compound (100 nM) and Temozolomide (500 microM), or Control (0.02% DMSO) onto the tumor.
At day E19 the upper portion of the CAM was removed, transferred in PBS and the tumors were then carefully cut away from normal CAM tissue. Tumors were then weighted. In parallel, a 1 cm^2 portion of the lower CAM was collected to evaluate the number of nodules, containing expressing cells. The fluorescent nodules were visualized in situ using whole mounts of fixed tissue and flattened between a hollow glass slide and a thick coverslip. In order to number the nodules, a thorough and complete visual scan of the piece of the lower CAM was done using fluorescent microscope.
Glioblastoma cell line GL261 was grafted on the chorio-allantoic membrane (CAM) of Fertilized White Leghorn eggs. The tumors were treated every two days with test compound ([…]), temolozomide (500 microM) or test compound (100 nM) and temozolomide (500 microM). For the control, the tumors were treated with 0.02% DMSO. Between seven (7) to eighteen (18) eggs were treated for each condition.

The mark [1] stands for this setting: combination test compound/Temozolomide 100 nM/500microM, control 120.5.
Where [2] appears, read: combination test compound/Temozolomide 100 nM/500 μM, control 106.65.
[3] abbreviates: test compound alone 100 nM, control (0.02% DMSO) 106.65.

`NC(N)=N/N=C/c1c(Cl)cccc1Cl` [Compound 1, 2-(2,6-dichlorobenzylidene)hydrazine carboximidamide, reference compound]: the “Tumor weight (mg) (N = 18)” value reads like this: under setting [1], 68.3 mg; (test compound alone 100 nM, control (0.02% DMSO) 120.5) 115 mg.
As to `CC(=O)O.N=C(N)N/N=C/c1ccncc1Cl` [Compound 6, 2-[(3-chloropyridin-4-yl)methylidene]hydrazinecarboximidamide Acetate], the “Tumor weight (mg) (N = 7 to 12)” value under setting [2] was found to be 70.45 mg. Moreover, for the setting “Acetate”, the “Effect on GL261 tumor size/weight on the upper CAM, in words” value is recorded as “synergistic reduction of GL261 tumor weight; also recorded: synergistic effect to reduce the tumor size” and the “Effect on GL261 tumor size, in words” value is reported as “no effect on tumor size reduction; also recorded: no effect to reduce the tumor size”. Besides, the “Tumor weight (mg) (N = 7 to 12)” value under setting [3] is recorded as 107.76 mg.
As to `CC(C)CCO/N=C(\N)N/N=C/c1ccccc1Cl` [Compound 11, Formate Salt], the “Effect on GL261 tumor size, in words” value is “reduces the tumor size”. Besides, under setting [2], the “Tumor weight (mg) (N = 7 to 12)” value was 67.29 mg. Also, for the setting “Formate Salt”, the “Effect on GL261 tumor size/weight on the upper CAM, in words” value is on record as “synergistic reduction of GL261 tumor weight; also recorded: synergistic effect to reduce the tumor size”. Under setting [3], the “Tumor weight (mg) (N = 7 to 12)” value amounted to 87.63 mg.
For the compound `C=CCO/N=C(\N)N/N=C/c1ccccc1Cl` [Compound 15, 2-(2-chlorobenzylidene)-N′-(prop-2-en-1-yloxy)hydrazine Carboximidamide], the “Effect on GL261 tumor size/weight on the upper CAM, in words” value is “synergistic reduction of GL261 tumor weight; also recorded: synergistic effect to reduce the tumor size” and the “Effect on GL261 tumor size, in words” value is on record as “reduces the tumor size”. The “Tumor weight (mg) (N = 7 to 12)” value under setting [2] is 40.66 mg. Moreover, the “Tumor weight (mg) (N = 7 to 12)” value under setting [3] is recorded as 63.44 mg.
As for `N/C(=N\OCCO)N/N=C/c1ccccc1Cl` [Compound 16, 2-(2-chlorobenzylidene)-N′-(2-hydroxyethoxy)hydrazinecarboximidamide], the “Effect on GL261 tumor size/weight on the upper CAM, in words” value is “further reduction of GL261 tumor weight; also recorded: further reduce the tumor size” and the “Effect on GL261 tumor size, in words” value is “display anti-glioma activity by reducing the tumor size”. For the same compound, the “Tumor weight (mg) (N = 7 to 12)” value under setting [2] is listed as 48.11 mg.
Consider `CCO/N=C(\N)N/N=C/c1ccccc1Cl` [Compound 20, 2-(2-chlorobenzylidene)-N′-ethoxyhydrazinecarboximidamide], for which the “Effect on GL261 tumor size/weight on the upper CAM, in words” value is recorded as “further reduction of GL261 tumor weight; also recorded: further reduce the tumor size” and the “Effect on GL261 tumor size, in words” value is given as “display anti-glioma activity by reducing the tumor size”. The “Tumor weight (mg) (N = 7 to 12)” value under setting [2] was determined as 73.51 mg.
In the case of `CCCO/N=C(\N)N/N=C/c1ccccc1Cl` [Compound 22, 2-(2-chlorobenzylidene)-N-propoxyhydrazinecarboximidamide], the “Effect on GL261 tumor size/weight on the upper CAM, in words” value was “synergistic reduction of GL261 tumor weight; also recorded: synergistic effect to reduce the tumor size”. The “Tumor weight (mg) (N = 18)” value under setting [1] was 48.4 mg.
For the compound `CCSCCO/N=C(\N)N/N=C/c1ccccc1Cl` [Compound 25, 2-(2-chlorobenzylidene)-N-[2-(ethylsulfanyl)ethoxy]hydrazinecarboximidamide], the “Tumor weight (mg) (N = 7 to 12)” value under setting [2] is recorded as 43.6 mg.
For `CCO/N=C(\N)N/N=C/c1ccncc1Cl` [Compound 26, 2-[(3-chloropyridin-4-yl)methylidene]-N-ethoxyhydrazinecarboximidamide], the “Effect on GL261 tumor size/weight on the upper CAM, in words” value is reported as “further reduction of GL261 tumor weight; also recorded: further reduce the tumor size” and the “Effect on GL261 tumor size, in words” value is “display anti-glioma activity by reducing the tumor size”. Besides, under setting [2], the “Tumor weight (mg) (N = 7 to 12)” value is reported as 66.23 mg.
The matching figures for `CCCCO/N=C(\N)N/N=C/c1ccccc1Cl` [Compound 28, N′-butoxy-2-(2-chlorobenzylidene)hydrazinecarboximidamide]: “further reduction of GL261 tumor weight; also recorded: further reduce the tumor size”, “display anti-glioma activity by reducing the tumor size” and 51.33 mg.
The matching figures for `CCCO/N=C(\N)N/N=C/c1c(F)cccc1Cl` [Compound 29, 2-(2-chloro-6-fluorobenzylidene)-N′-propoxyhydrazinecarboximidamide]: “further reduction of GL261 tumor weight; also recorded: further reduce the tumor size”, “display anti-glioma activity by reducing the tumor size” and 54.13 mg.
The matching figures for `CCCO/N=C(\N)N/N=C/c1ccncc1Cl` [Compound 33, 2-[(3-chloropyridin-4-yl)methylidene]-N-propoxyhydrazinecarboximidamide]: “further reduction of GL261 tumor weight; also recorded: further reduce the tumor size”, “display anti-glioma activity by reducing the tumor size” and 62.42 mg.
For the compound `Cn1nnc2c(C(N)=O)ncn2c1=O` [Temozolomide, 3,4-dihydro-3-methyl-4-oxoimidazo [5,1-d]-as-tetazine-8-carboxamide, reference compound], under “Temozolomide alone 500 μM, control (0.02% DMSO) 106.65”, the “Tumor weight (mg) (N = 7 to 12)” value is given as 90.17 mg. For the setting “Temozolomide alone 500microM, control (0.02% DMSO) 120.5”, the “Tumor weight (mg) (N = 18)” value came out at 86.3 mg.

Source of the values: US10675257B2, “Method of treating cancer with a combination of benzylideneguanidine derivatives and chemotherapeutic agent” (InFlectis BioScience, priority 2015, dated 2020).
